Square brackets hold non-standard residues; d marks the D form. Ends that are not written are not given here. PEG2 = NCCOCCOCCC(=O)O
Tests used:
[1] = test system: Pseudomonas aeruginosa ATCC 27853; test: In vitro bactericidal assay, P. aeruginosa ATCC 27853 (FIGS. 12-14); format: cell-based; conditions: FIG. 14; pH 5.5; 180 minutes; even at the lower concentration (75 μg/ml)
Protocol: (§1) Each of the test peptides was used at 25, 12.5 6.25, and 3.12 μM. The gentamicin was used at 4 μg/ml. 1×10^6/ml Pseudomonas aeruginosa ATCC® 27853™ (American Type Culture Collection, Manassas, Va.) were incubated with the peptides, negative buffer control (tryptone saline), and positive control gentamicin for 180 minutes at pH 7.2. 50 μl aliquots were plated out on agar plates and incubated overnight. Colony forming units were counted after overnight incubation and CFU/ml calculated.
as §1, with “12.5,” for “12.5”, “5.5.” for “7.2.”
FIG. 14 is a comparison of bactericidal activity of CAP37 peptides 120-146WR (SEQ ID NO:30), 120-146WH (SEQ ID NO:31), 120-146QR (SEQ ID NO:28), 120-146QH (SEQ ID NO:29), 120-146QR-5RMP (SEQ ID NO:32), and 120-146QH-5RMP (SEQ ID NO:33) for Pseudomonas aeruginosa ATCC® 27853™ (American Type Culture Collection, Manassas, Va.). 1×10^6/ml Pseudomonas aeruginosa ATCC® 27853™ were incubated with the peptides at 150, 75, and 37.5 μg/ml and negative buffer control (tryptone saline) for 180 minutes at pH 5.5. 50 μl aliquots were plated out on agar plates and incubated overnight. Colony forming units were counted after overnight incubation and CFU/ml calculated.
For FIGS. 10-13, in vitro bactericidal assays were performed using a starting inoculum of 1×10^6 CFU/ml of the bacterial suspension. The CFU remaining at the end of the 60-180 minute incubation was determined, and the data was plotted as log reduction in CFU/ml.
In particular, each of the test peptides (CAP37 peptides 120-146WR, 120-146WH, and 95-122 (SEQ ID NOS:30, 31, and 26, respectively)) was used at 25, 12.5, 6.25, and 3.12 μM. Gentamicin was used at 4 μg/ml. 1×10^6/ml Acinetobacter baumannii ATCC® BAA-747™ or Pseudomonas aeruginosa ATCC® 27853™ (American Type Culture Collection, Manassas, Va.) were incubated with the peptides, negative buffer control (tryptone saline), and positive control gentamicin at pH 5.5 or 7.2. A 60 minute incubation was used for Acinetobacter baumannii ATCC® BAA-747™, while a 180 minute incubation was used for Pseudomonas aeruginosa ATCC® 27853™. 50 μl aliquots were plated out on agar plates and incubated overnight. Colony forming units were counted after overnight incubation and CFU/ml calculated.
For FIG. 14, 1×10^6/ml Pseudomonas aeruginosa ATCC® 27853™ were incubated with each of the test peptides (CAP37 peptides 120-146WR, 120-146WH, 120-146QR, 120-146QH, 120-146QR-5RMP, and 120-146QH-5RMP (SEQ ID NOS:30, 31, 28, 29, 32, and 33, respectively)) at 150, 75, and 37.5 μg/ml, or negative buffer control (tryptone saline), for 180 minutes at pH 5.5. 50 μl aliquots were plated out on agar plates and incubated overnight. Colony forming units were counted after overnight incubation and CFU/ml calculated.

[2] = test system: P. aeruginosa (ATCC 27853); test: Mouse model of Pseudomonas (bacterial) keratitis; format: in vivo
Protocol: A circular wound was created on the mouse cornea by removing the epithelium and infected with 10^5 colony forming units (CFU) of P. aeruginosa (ATCC® 27853™ (American Type Culture Collection, Manassas, Va.)). Infected wounds were treated with saline (0.9% sodium chloride, vehicle control) or saline containing indicated concentrations of peptide every 15 minutes for 2 hours, then every 30 minutes for 3 hours on the first day. Infected wounds were treated twice on the second day and once on the third day. Mice were killed at 48 hours post-infection, and CFU/eye were quantified. The means were plotted and are representative of 5 to 9 mice per group. Mann Whitney test was performed for each group as compared to the saline control group. *P=0.014. In compound names such as BCC02-5RMP used herein, “R” represents arginine, and “MP” represents a small PEG molecule as defined elsewhere herein (such as, for example but not by way of limitation, “AEEP”).
(§2) A circular wound was created on the mouse cornea by removing the epithelium, and the wound was infected with 10^5 CFU of P. aeruginosa (ATCC® 27853™ (American Type Culture Collection, Manassas, Va.)). Infected wounds were treated with saline or saline containing indicated concentrations (2, 5, 10, and 20 mg/ml) of peptide every 30 minutes for 6 hours on the first day. Infected wounds were treated twice on the second day and once on the third day. Mice were killed at 48 hours post-infection, and the CFU/eye were quantified. The means are plotted and are representative of 5 mice per group. Mann Whitney test was performed for each group as compared to the saline control group. *P=0.015 and **P=0.097.
as §2, with “representative of 4 to 5 mice” for “representative of 5 mice”, “control group.” for “control group. *P=0.015 and **P=0.097.”
as §2, with “group. **P=0.0079 by” for “group.”, “test” for “test was performed for each group”, “group.” for “group. *P=0.015 and **P=0.097.”
A circular wound (2 mm) was created on the mouse cornea by removing the epithelium and infecting the wound with 10^5 CFU of P. aeruginosa (ATCC® 27853™ (American Type Culture Collection, Manassas, Va.)). Infected wounds were treated with saline or saline containing indicated concentrations of peptide every 15 minutes for 2 hours, then every 30 minutes for 3 hours on the first day. […] Mice were killed at 48 hours post-infection, and the colony forming units per eye (CFU/eye) were quantified. […]

(AEEP)-(AEEP)-RRRRGTRCQVAGWGSQRSGGRLSRFPRFVNVR ([PEG2][PEG2]RRRRGTRCQVAGWGSQRSGGRLSRFPRFVNVR) [120-146QR-5RMP]
reduction in CFU [1]: ~6 log
mice with no viable bacteria in the eye after treatment ([2]; the 10 and 20 mg/ml groups together): Six of the 10 mice
CFU/eye vs saline, in words ([2]; topical doses of 10 and 20 mg/ml, 48 hours post-infection): significantly reduced the CFU/eye

From patent publication US11884710B2, “Peptide compounds and methods of use in wound healing” (priority 2013, dated 2024)
